Reference: US8399451B2, “Heterocyclic compounds” (Bristol-Myers Squibb Company, priority 2009, dated 2013)
Read-outs that look alike come from different tables or passages of the source. Each block holds one compound with its values, some of them ahead of it.

Tests used:
S1P3 = biological target: T1, S1P3 (Homo sapiens, UniProt Q99500); assay: Receptor [35S] GTPγS Binding Assay, membranes from EDG3-Ga15-bla HEK293T cells; type: biochemical; conditions: * detection limit 31,000 nM or 62,000 nM
T1 construct: expressed in transfected cells; host or cells: EDG3-Ga15-bla HEK293T cells
T1 sequence (Q99500 whole entry): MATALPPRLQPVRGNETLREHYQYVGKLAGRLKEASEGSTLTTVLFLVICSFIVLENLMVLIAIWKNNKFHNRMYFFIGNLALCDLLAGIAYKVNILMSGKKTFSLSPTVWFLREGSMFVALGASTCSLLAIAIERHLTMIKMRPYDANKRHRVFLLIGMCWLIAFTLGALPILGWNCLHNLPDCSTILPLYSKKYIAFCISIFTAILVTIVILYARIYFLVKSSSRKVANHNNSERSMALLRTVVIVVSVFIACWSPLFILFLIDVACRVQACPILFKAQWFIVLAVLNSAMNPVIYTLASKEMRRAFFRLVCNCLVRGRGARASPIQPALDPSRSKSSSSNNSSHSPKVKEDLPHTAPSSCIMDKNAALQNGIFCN
Protocol: (§1) Receptor [35S] GTPγS Binding Assays
(§2) Membranes prepared from S1P1/CHO cells or EDG3-Ga15-bla HEK293T cells were added to the compound plate (40 μl/well, final protein 3 μg/well) with MULTIDROP®. [^35S]GTP (1250 Ci/mmol, Perkin Elmer) was diluted in assay buffer: 20 mM HEPES, pH7.5, 10 mM MgCl2, 150 mM NaCl, 1 mM EGTA, 1 mM DTT, 10 μM GDP, 0.1% fatty acid free BSA, and 10 μg/ml Saponin to 0.4 nM. 40 μl of the [^35S] GTP solution was added to the compound plate with a final concentration of 0.2 nM. […] At the end of incubation, all the mixtures in the compound plate were transferred to a 384 well FB filter plates via GPCR robot system. […] 30 μl of MicroScint 20 scintillation fluid was added to each well for counting at Packard TOPCOUNT®.

S1P1 [1] = biological target: T2, S1P1 (Homo sapiens, UniProt P21453); assay: S1P1 Binding Assay (33P-S1P radioligand competition, membranes); set-up: expressed in transfected cells; host or cells: CHO cells; conditions: membranes from CHO cells expressing human S1P1; 0.03 nM 33P-S1P; rounded to two digits
T2 sequence (P21453 whole entry): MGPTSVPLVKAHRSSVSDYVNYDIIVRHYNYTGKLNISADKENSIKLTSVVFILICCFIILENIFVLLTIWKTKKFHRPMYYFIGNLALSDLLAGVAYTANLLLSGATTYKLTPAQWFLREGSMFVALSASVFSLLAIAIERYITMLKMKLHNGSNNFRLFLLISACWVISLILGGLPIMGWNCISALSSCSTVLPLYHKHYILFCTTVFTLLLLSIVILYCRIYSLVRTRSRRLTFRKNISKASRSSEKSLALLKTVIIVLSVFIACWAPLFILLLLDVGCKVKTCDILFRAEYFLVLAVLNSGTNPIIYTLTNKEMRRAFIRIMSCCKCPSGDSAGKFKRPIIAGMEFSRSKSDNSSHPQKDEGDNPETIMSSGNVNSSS
Protocol: Membranes were prepared from CHO cells expressing human S1P1. Cells were dissociated in buffer containing 20 mM HEPES, pH 7.5, 50 mM NaCl, 2 mM EDTA and Protease Inhibitor cocktail (Roche), and disrupted on ice using the Polytron homogenizer. The homogenate was centrifuged at 20,000 rpm (48,000 G) and the supernatant was discarded. The membrane pellets were resuspended in buffer containing 50 mM HEPES, pH 7.5, 100 mM NaCl, 1 mM MgCl2, 2 mM EDTA and stored in aliquots at −80° C. after protein concentration determination.
Binding was performed for 45 minutes at room temperature, terminated by collecting the membranes onto GF/B filter plates, and radioactivity was measured by TOPCOUNT®. The competition data of the test compounds over a range of concentrations was plotted as percentage inhibition of radioligand specific binding.
The results in Table A were rounded to two digits.

S1P1 [2] = biological target: T2, S1P1; assay: Receptor [35S] GTPγS Binding Assay, membranes from S1P1/CHO cells; type: biochemical; set-up: expressed in transfected cells; host or cells: S1P1/CHO cells; conditions: for S1P3/S1P1 GTPγS (ratio of S1P3 GTPγS EC50 to S1P1 GTPγS EC50): selectivity ratio calculated from Table B, * may be greater than reported value due to S1P3 assay limits
Protocol: as §1, §2

circulating lymphocytes = assay: Blood Lymphocyte Reduction Assay (BLR) in Rodents; type: in vivo; conditions: Lewis rats, oral, vs vehicle (PEG300)
Protocol: Blood Lymphocyte Reduction Assay (BLR) in Rodents
Lewis rats were dosed orally with test article (as a solution or suspension in the vehicle) or vehicle alone (polyethylene glycol 300, “PEG300”). Blood was drawn at 4 hr by retro-orbital bleeding. Blood lymphocyte counts were determined on an ADVIA® 120 Hematology Analyzer (Siemens Healthcare Diagnostics). The results were measured as a reduction in the percentage of circulating lymphocytes as compared to the vehicle treated group at the 4 hr measurement.

[3] = membranes from S1P1/CHO cells, read-out: S1P1 GTPγS EC50

Structure (SMILES): CCCc1c(-c2nc(-c3ccc(CCN4CCC[C@H](C(=O)O)C4)cc3)no2)noc1-c1ccccc1 [Comparative Compound 119, (S)-1-(4-(5-(5-Phenyl-4-propylisoxazol-3-yl)-1,2,4-oxadiazol-3-yl)phenethyl)piperidine-3-carboxylic acid, reference compound]
EC50 (S1P3): > 62000 nM
IC50 (S1P1 [1]): 420 nM
EC50 (S1P1 [2]; read-out: S1P1 GTPγS EC50 value): 31000 nM
S1P3/S1P1 GTPγS (ratio of S1P3 GTPγS EC50 to S1P1 GTPγS EC50) (S1P1 [2]): 2.3
S1P3/S1P1 GTPγS (ratio of S1P3 GTPγS EC50 to S1P1 GTPγS EC50) (S1P1 [2]; listed as Comp. 119): 2.3*

Structure (SMILES): CCCc1c(-c2nc(-c3ccc(C(O)CN4CCC[C@H](C(=O)O)C4)cc3)no2)noc1-c1ccccc1 (stereo partly drawn) [Example 4, (3S)-1-(2-Hydroxy-2-(4-(5-(5-phenyl-4-propylisoxazol-3-yl)-1,2,4-oxadiazol-3-yl)phenyl)ethyl)piperidine-3-carboxylic acid]
% Reduction in Lymphocytes at 4 hr. (circulating lymphocytes; dose 3 mg/kg): 71%

Structure (SMILES): O=C(O)[C@H]1CCCN(C[C@@H](O)c2ccc(-c3noc(-c4onc(-c5ccccc5)c4C(F)(F)F)n3)cc2)C1 [Example 14, (S)-1-((S)-2-Hydroxy-2-(4-(5-(3-phenyl-4-(trifluoromethyl)isoxazol-5-yl)-1,2,4-oxadiazol-3-yl)phenyl)ethyl)piperidine-3-carboxylic acid]
% Reduction in Lymphocytes at 4 hr. (circulating lymphocytes; dose 3 mg/kg): 83%

Structure (SMILES): CC(O)(CN1CCC[C@H](C(=O)O)C1)c1ccc(-c2noc(-c3onc(-c4ccccc4)c3C(F)(F)F)n2)cc1 (stereo partly drawn) [Example 17, (3S)-1-(2-Hydroxy-2-(4-(5-(3-phenyl-4-(trifluoromethyl)isoxazol-5-yl)-1,2,4-oxadiazol-3-yl)phenyl)propyl)piperidine-3-carboxylic acid]
EC50 (S1P3): 1200 nM
IC50 (S1P1 [1]): 28 nM
EC50 (S1P1 [2]; [3]): 320 nM
S1P3/S1P1 GTPγS (ratio of S1P3 GTPγS EC50 to S1P1 GTPγS EC50) (S1P1 [2]): 3.8

Structure (SMILES): O=C(O)C[C@H]1CCCN(C[C@@H](O)c2ccc(-c3noc(-c4onc(-c5ccccc5)c4C(F)(F)F)n3)cc2)C1 [Example 18, 2-((3R)-1-(2-Hydroxy-2-(4-(5-(3-phenyl-4-(trifluoromethyl)isoxazol-5-yl)-1,2,4-oxadiazol-3-yl)phenyl)ethyl)piperidin-3-yl)acetic acid]
% Reduction in Lymphocytes at 4 hr. (circulating lymphocytes; dose 1 mg/kg): 82%

Structure (SMILES): O=C(O)[C@H]1CCCN(CC(O)c2ccc(-c3noc(-c4onc(-c5ccccc5)c4C(F)(F)F)n3)c(C(F)(F)F)c2)C1 (stereo partly drawn) [Example 26, (3S)-1-(2-Hydroxy-2-(4-(5-(3-phenyl-4-(trifluoromethyl)isoxazol-5-yl)-1,2,4-oxadiazol-3-yl)-3-(trifluoromethyl)phenyl)ethyl)piperidine-3-carboxylic acid]
IC50 (S1P1 [1]): 14 nM

Structure (SMILES): O=C(O)CC1CN(CC(O)c2ccc(-c3noc(-c4onc(-c5ccccc5)c4C(F)(F)F)n3)cc2)C1 (stereo not drawn) [Example 27, 2-(1-(2-Hydroxy-2-(4-(5-(3-phenyl-4-(trifluoromethyl)isoxazol-5-yl)-1,2,4-oxadiazol-3-yl)phenyl)ethyl)azetidin-3-yl)acetic acid]
IC50 (S1P1 [1]): 14 nM

Structure (SMILES): O=C(O)C1CN(CC(O)c2ccc(-c3noc(-c4onc(-c5ccccc5)c4C(F)(F)F)n3)cc2)CCO1 (stereo not drawn) [Example 28, 4-(2-Hydroxy-2-(4-(5-(3-phenyl-4-(trifluoromethyl)isoxazol-5-yl)-1,2,4-oxadiazol-3-yl)phenyl)ethyl)morpholine-2-carboxylic acid]
IC50 (S1P1 [1]): 31 nM

Structure (SMILES): O=C(O)CCC1CCCN(CC(O)c2ccc(-c3noc(-c4onc(-c5ccccc5)c4C(F)(F)F)n3)cc2)C1 (stereo not drawn) [Example 40, 3-(1-(2-Hydroxy-2-(4-(5-(3-phenyl-4-(trifluoromethyl)isoxazol-5-yl)-1,2,4-oxadiazol-3-yl)phenyl)ethyl)piperidin-3-yl)propanoic acid]
% Reduction in Lymphocytes at 4 hr. (circulating lymphocytes; dose 5.5 mg/kg): 80%

Continued, values first:

IC50 (S1P1 [1]): 0.45 nM
Structure (SMILES): CCCc1c(-c2nc(-c3ccc(C(O)CN4CC(C(=O)O)C4)cc3)no2)noc1-c1ccccc1 (stereo not drawn) [Example 1, 1-(2-Hydroxy-2-(4-(5-(5-phenyl-4-propylisoxazol-3-yl)-1,2,4-oxadiazol-3-yl)phenyl)ethyl)azetidine-3-carboxylic acid]

IC50 (S1P1 [1]): 2.2 nM
Structure (SMILES): CCCc1c(-c2nc(-c3ccc(C(O)CN4CCCCC4C(=O)O)cc3)no2)noc1-c1ccccc1 (stereo not drawn) [Example 2, 1-(2-Hydroxy-2-(4-(5-(5-phenyl-4-propylisoxazol-3-yl)-1,2,4-oxadiazol-3-yl)phenyl)ethyl)piperidine-2-carboxylic acid]

IC50 (S1P1 [1]): 12 nM
Structure (SMILES): CCCc1c(-c2nc(-c3ccc(C(O)CN4CC[C@@H]4C(=O)O)cc3)no2)noc1-c1ccccc1 (stereo partly drawn) [Example 7, (2R)-1-(2-Hydroxy-2-(4-(5-(5-phenyl-4-propylisoxazol-3-yl)-1,2,4-oxadiazol-3-yl)phenyl)ethyl)azetidine-2-carboxylic acid]

IC50 (S1P1 [1]): 4.8 nM
Structure (SMILES): CCCc1c(-c2nc(-c3ccc(C(O)CN4CCOC(C(=O)O)C4)cc3)no2)noc1-c1ccccc1 (stereo not drawn) [Example 11, 4-(2-Hydroxy-2-(4-(5-(5-phenyl-4-propylisoxazol-3-yl)-1,2,4-oxadiazol-3-yl)phenyl)ethyl)morpholine-2-carboxylic acid]

EC50 (S1P3): 3500 nM
IC50 (S1P1 [1]): 43 nM
EC50 (S1P1 [2]; [3]): 410 nM
S1P3/S1P1 GTPγS (ratio of S1P3 GTPγS EC50 to S1P1 GTPγS EC50) (S1P1 [2]): 8.6
Structure (SMILES): CCCc1c(-c2nc(-c3ccc(C(O)CN4CCCC(C(=O)N(CC)CC)C4)cc3)no2)noc1-c1ccccc1 (stereo not drawn) [Example 24, N,N-Diethyl-1-(2-hydroxy-2-(4-(5-(5-phenyl-4-propylisoxazol-3-yl)-1,2,4-oxadiazol-3-yl)phenyl)ethyl)piperidine-3-carboxamide]
